# Assay results published in patent US11447505B1, “Pyrrolo[2,3-b]pyridine compounds and their use in the treatment of cancer” (priority 2017, dated 2022).
# What was measured:
# ROCK1 = ROCK1 (Homo sapiens (Human), UniProt Q13464); settings: read-out: ROCK1 Average Ki; 1 μM ATP
# MRCKβ = MRCKβ (Homo sapiens (Human), UniProt Q9Y5S2); assay: MRCKβ kinase assay (IMAP fluorescence polarization); type: biochemical; settings: 1 μM ATP; read-out: MRCK-B Average Ki
# Source text: (§1) MRCKα, MRCKβ, ROCK1 and ROCK2 Kinase Assays
# MRCKα = MRCKα (Homo sapiens (Human), UniProt Q5VT25); assay: MRCKα kinase assay (IMAP fluorescence polarization); type: biochemical; settings: 1 μM ATP; read-out: MRCK-a Average Ki
# Source text: as §1
# ROCK2 = ROCK2 (Homo sapiens (Human), UniProt O75116); assay: ROCK2 kinase assay (IMAP fluorescence polarization); type: biochemical; settings: 1 μM ATP; read-out: ROCK2 Average Ki
# Chain of ROCK2 (O75116 whole entry): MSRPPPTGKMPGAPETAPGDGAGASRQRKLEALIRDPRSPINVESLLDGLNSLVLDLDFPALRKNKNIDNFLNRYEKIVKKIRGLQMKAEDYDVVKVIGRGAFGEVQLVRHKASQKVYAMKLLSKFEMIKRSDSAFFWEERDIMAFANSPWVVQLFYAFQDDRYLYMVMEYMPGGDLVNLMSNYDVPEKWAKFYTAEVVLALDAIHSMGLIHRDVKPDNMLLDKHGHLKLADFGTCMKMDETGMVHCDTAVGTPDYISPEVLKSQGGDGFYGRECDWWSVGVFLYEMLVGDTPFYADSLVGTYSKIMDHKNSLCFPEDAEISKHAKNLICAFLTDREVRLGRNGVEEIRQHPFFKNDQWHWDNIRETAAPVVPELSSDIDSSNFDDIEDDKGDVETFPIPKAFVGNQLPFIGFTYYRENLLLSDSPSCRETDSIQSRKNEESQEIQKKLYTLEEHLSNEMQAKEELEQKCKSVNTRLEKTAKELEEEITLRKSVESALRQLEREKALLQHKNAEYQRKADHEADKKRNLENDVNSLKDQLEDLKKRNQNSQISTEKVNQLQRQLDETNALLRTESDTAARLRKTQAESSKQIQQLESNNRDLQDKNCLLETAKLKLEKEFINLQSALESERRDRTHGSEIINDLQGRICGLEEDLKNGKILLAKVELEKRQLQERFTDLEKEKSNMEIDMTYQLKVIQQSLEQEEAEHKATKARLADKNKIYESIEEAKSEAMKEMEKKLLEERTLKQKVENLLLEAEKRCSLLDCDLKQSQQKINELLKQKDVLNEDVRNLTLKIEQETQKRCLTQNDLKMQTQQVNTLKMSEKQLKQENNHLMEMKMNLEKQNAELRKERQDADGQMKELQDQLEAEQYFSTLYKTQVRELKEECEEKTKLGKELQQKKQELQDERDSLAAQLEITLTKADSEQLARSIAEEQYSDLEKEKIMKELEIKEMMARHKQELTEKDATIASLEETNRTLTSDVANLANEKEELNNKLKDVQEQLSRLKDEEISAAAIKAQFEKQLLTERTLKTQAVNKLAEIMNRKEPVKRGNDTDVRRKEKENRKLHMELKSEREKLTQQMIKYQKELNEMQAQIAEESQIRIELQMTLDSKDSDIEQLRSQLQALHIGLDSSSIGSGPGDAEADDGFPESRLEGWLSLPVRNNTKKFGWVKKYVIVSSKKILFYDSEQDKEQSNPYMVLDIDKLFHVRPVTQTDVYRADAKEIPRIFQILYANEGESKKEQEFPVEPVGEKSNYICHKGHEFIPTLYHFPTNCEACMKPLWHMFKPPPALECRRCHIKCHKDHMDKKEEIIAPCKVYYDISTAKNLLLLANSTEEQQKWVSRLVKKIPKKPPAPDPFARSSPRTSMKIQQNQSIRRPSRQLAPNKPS
# Procedure: MRCKα, MRCKβ, ROCK1 and ROCK2 assays were performed using an IMAP fluorescence polarization assay format (Molecular Devices Inc.). 8-12 nM of each kinase (Life Technologies) was incubated for 60 min at room temperature with 100 nM FAM-S6-ribosomal protein derived peptide (synthesized by Alta Biosciences, University of Birmingham UK) in the presence of 1 μM ATP and 0.5 mM MgCl2 in 20 mM Tris buffer (pH 7.4) containing 0.01% Tween-20 and 1 mM DTT (MRCKα and β); or 1 μM ATP, 10 mM MgCl2 in 20 mM Tris buffer (pH 7.5) containing 0.25 mM EGTA 0.01% Triton X-100 and 1 mM DTT (ROCK1 and ROCK2). Typically, dose response analyses were performed over concentration ranges from 0.005-100 μM. Reactions were stopped by adding 2 assay volumes of 0.25% (v/v) IMAP binding reagent in 1×IMAP binding buffer A (Molecular Devices). After 30 min incubation to allow binding reagent to bind phosphorylated peptide, fluorescence polarization was measured on a Tecan Saphire^2 plate reader at excitation (470 nm) and emission (530 nm) wavelengths.
# Chain of MRCKα (Q5VT25 whole entry): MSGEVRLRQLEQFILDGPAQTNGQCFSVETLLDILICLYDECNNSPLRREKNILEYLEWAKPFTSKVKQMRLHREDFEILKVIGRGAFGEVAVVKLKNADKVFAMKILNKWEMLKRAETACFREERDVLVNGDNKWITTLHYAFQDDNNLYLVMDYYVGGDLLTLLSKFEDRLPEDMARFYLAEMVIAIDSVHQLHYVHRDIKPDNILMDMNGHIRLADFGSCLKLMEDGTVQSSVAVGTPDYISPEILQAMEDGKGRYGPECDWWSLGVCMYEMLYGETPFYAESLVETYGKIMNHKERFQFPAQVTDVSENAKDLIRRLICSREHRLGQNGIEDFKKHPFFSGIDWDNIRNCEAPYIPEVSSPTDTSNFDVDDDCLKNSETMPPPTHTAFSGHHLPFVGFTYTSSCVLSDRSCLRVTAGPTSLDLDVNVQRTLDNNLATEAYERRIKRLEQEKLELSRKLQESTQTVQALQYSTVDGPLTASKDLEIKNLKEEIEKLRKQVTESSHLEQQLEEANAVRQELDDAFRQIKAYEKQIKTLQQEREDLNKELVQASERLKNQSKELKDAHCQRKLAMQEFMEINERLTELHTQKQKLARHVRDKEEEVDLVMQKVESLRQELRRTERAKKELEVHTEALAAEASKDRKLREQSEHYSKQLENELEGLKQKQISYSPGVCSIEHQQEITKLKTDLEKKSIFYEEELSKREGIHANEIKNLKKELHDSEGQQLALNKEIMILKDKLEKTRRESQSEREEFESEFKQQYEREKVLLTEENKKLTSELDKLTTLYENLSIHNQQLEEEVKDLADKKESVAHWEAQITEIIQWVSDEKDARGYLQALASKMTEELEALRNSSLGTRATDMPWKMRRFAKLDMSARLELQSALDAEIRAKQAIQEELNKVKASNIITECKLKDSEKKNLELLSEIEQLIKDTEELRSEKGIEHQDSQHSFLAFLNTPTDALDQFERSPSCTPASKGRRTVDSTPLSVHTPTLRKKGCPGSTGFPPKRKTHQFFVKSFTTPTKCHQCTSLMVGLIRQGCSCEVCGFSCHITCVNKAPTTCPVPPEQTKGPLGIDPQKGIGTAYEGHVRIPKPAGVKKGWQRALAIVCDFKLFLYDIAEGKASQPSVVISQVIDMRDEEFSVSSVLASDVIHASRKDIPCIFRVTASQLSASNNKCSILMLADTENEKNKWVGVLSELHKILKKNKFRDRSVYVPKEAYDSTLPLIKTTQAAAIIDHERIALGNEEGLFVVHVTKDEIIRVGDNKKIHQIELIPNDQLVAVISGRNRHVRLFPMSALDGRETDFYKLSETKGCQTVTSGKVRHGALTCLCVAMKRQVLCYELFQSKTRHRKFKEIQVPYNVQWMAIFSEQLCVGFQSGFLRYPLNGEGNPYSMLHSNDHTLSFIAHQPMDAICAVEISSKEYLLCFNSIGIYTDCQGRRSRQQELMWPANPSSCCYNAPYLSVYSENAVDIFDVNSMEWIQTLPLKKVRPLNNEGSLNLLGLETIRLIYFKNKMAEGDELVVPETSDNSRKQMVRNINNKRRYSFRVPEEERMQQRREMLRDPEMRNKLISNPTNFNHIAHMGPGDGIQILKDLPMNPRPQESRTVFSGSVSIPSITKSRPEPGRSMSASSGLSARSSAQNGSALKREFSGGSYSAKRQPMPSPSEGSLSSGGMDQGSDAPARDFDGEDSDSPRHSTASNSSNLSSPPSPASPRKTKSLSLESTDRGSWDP
# Chain of ROCK1 (Q13464 2-1354 limits assumed): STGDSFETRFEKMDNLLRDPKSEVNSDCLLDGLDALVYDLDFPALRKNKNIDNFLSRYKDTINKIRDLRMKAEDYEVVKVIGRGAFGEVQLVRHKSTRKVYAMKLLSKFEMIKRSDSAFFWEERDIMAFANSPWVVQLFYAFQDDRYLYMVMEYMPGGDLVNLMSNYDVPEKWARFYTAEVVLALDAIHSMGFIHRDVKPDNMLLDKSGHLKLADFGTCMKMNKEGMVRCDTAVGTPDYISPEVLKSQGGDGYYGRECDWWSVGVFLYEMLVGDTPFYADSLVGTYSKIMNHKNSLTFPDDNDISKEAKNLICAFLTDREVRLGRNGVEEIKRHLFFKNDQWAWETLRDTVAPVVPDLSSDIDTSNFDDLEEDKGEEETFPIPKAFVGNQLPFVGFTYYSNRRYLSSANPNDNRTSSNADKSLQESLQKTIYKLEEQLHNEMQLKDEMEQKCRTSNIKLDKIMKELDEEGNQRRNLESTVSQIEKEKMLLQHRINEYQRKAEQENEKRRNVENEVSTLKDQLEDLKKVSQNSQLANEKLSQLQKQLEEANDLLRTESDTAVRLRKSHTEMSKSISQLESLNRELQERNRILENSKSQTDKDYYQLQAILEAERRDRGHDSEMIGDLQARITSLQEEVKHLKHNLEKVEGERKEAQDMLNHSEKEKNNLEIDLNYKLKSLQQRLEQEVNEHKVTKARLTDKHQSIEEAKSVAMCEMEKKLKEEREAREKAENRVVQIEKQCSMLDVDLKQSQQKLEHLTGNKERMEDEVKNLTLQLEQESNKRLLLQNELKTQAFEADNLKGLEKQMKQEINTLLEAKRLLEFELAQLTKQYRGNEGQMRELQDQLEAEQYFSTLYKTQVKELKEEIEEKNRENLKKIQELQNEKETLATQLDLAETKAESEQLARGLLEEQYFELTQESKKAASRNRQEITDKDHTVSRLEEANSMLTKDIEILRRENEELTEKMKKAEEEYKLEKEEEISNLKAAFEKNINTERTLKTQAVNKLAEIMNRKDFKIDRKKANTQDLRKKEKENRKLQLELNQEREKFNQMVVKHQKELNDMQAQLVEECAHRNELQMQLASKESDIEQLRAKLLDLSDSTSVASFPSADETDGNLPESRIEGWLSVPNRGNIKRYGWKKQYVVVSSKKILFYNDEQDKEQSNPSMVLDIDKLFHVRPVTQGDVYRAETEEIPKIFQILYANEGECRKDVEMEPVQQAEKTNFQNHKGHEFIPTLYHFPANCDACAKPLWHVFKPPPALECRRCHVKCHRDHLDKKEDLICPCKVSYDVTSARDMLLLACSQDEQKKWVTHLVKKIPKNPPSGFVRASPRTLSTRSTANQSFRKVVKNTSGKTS
Ki (ROCK1),Ki (MRCKβ),Ki (MRCKα),Ki (ROCK2),SMILES
207 nM,36.4 nM,19.7 nM,102 nM,"Cc1cnc2[nH]cc(-c3cn[nH]c3)c2c1N1CCCCC1 [Example E2, 5-methyl-4-(1-piperidyl)-3-(1H-pyrazol-4-yl)-1H-pyrrolo[2,3-b]pyridine]"
–,40.7 nM,14.2 nM,516 nM,"c1ncc(-c2c[nH]c3nccc(N4CCCCC4)c23)cn1 [Example E20, 4-(1-piperidyl)-3-pyrimidin-5-yl-1H-pyrrolo[2,3-b]pyridine]"
24.3 nM,5.73 nM,12.8 nM,20.2 nM,"CN1CCCN(c2ccnc3[nH]cc(C#N)c23)CC1 [Example E30, 4-(4-methyl-1,4-diazepan-1-yl)-1H-pyrrolo[2,3-b]pyridine-3-carbonitrile]"
43.6 nM,16.7 nM,47.9 nM,24.1 nM,"CN(C)c1ccnc2[nH]cc(C#N)c12 [Example E31, 4-(dimethylamino)-1H-pyrrolo[2,3-b]pyridine-3-carbonitrile]"
57.9 nM,9.01 nM,14.3 nM,16 nM,"N#Cc1c[nH]c2nccc(N3CCCCC3)c12 [Example E35, 4-(1-piperidyl)-1H-pyrrolo[2,3-b]pyridine-3-carbonitrile]"
90.6 nM,78.9 nM,82.1 nM,65.8 nM,"N#Cc1c[nH]c2nccc(N3CCCC3)c12 [Example E36, 4-pyrrolidin-1-yl-1H-pyrrolo[2,3-b]pyridine-3-carbonitrile]"
43.8 nM,39.9 nM,125 nM,30.3 nM,"CNc1ccnc2[nH]cc(C#N)c12 [Example E37, 4-(methylamino)-1H-pyrrolo[2,3-b]pyridine-3-carbonitrile]"
301 nM,7.31 nM,18.9 nM,129 nM,"CN[C@H]1CCCN(c2ccnc3[nH]cc(-c4cnn(C)c4)c23)C1 [Example E55, (3S)-N-methyl-1-[3-(1-methylpyrazol-4-yl)-1H-pyrrolo[2,3-b]pyridin-4-yl]piperidin-3-amine]"
231 nM,49.5 nM,–,163 nM,"c1ncc(-c2c[nH]c3nccc(N4CCCC(N5CCNCC5)C4)c23)cn1 (stereo not shown) [Example E91, 4-(3-piperazin-1-yl-1-piperidyl)-3-pyrimidin-5-yl-1H-pyrrolo[2,3-b]pyridine]"
913 nM,9.33 nM,–,495 nM,"FC1CCN([C@H]2CCCN(c3ccnc4[nH]cc(-c5cncnc5)c34)C2)CC1 [Example E94, 4-[(3S)-3-(4-fluoro-1-piperidyl)-1-piperidyl]-3-pyrimidin-5-yl-1H-pyrrolo[2,3-b]pyridine]"
1300 nM,28.8 nM,–,876 nM,"c1ncc(-c2c[nH]c3nccc(N4CCC[C@H](N5CCOCC5)C4)c23)cn1 [Example E96, 4-[(3S)-1-(3-pyrimidin-5-yl-1H-pyrrolo[2,3-b]pyridin-4-yl)-3-piperidyl]morpholine]"
38.2 nM,13.9 nM,–,51.2 nM,"c1ncc(-c2c[nH]c3nccc(NCC4CCNCC4)c23)cn1 [Example E102, N-(4-piperidylmethyl)-3-pyrimidin-5-yl-1H-pyrrolo[2,3-b]pyridin-4-amine]"
252 nM,18.7 nM,–,161 nM,"CN1CCCN(c2ccnc3[nH]cc(-c4cncnc4)c23)CC1 [Example E103, 4(4-methyl-1,4-diazepan-l-yl)-3-pyrimidin-5-yl-1H-pyrrolo[2,3-b]pyridine]"
303 nM,222 nM,–,198 nM,"Cc1[nH]ncc1-c1c[nH]c2nccc(N3CCCCC3)c12 [Example E104, 3-(5-methyl-1H-pyrazol-4-yl)-4-(1-piperidyl)-1H-pyrrolo[2,3-b]pyridine]"
10.1 nM,1 nM,–,9.5 nM,"NCC1CCN(c2ccnc3[nH]cc(-c4cncnc4)c23)CC1 [Example E105, [1-(3-pyrimidin-5-yl-1H-pyrrolo[2,3-b]pyridin-4-yl)-4-piperidyl]methanamine]"
1880 nM,90.3 nM,–,2820 nM,"N#Cc1c[nH]c2nccc(N3CCCC3Cc3ccccc3)c12 (stereo not shown) [Example E107, 4-(2-benzylpyrrolidin-1-yl)-1H-pyrrolo[2,3-b]pyridine-3-carbonitrile]"

Ki (ROCK1),Ki (MRCKβ),Ki (MRCKα),Ki (ROCK2),SMILES
21.8 nM,3.89 nM,–,18.8 nM,"COC[C@@H]1CCCN1c1ccnc2[nH]cc(C#N)c12 [Example E108, 4-[(2S)-2-(methoxymethyl)pyrrolidin-1-yl]-1H-pyrrolo[2,3-b]pyridine-3-carbonitrile]"
682 nM,558 nM,–,728 nM,"N#Cc1c[nH]c2nccc(N3CCCC(c4ccccc4)C3)c12 (stereo not shown) [Example E112, 4-(3-phenyl-1-piperidyl)-1H-pyrrolo[2,3-b]pyridine-3-carbonitrile]"
388 nM,111 nM,–,144 nM,"N#Cc1c[nH]c2nccc(N3CCCC3c3ccccc3)c12 (stereo not shown) [Example E113, 4-(2-phenylpyrrolidin-1-yl)-1H-pyrrolo[2,3-b]pyridine-3-carbonitrile]"
9.3 nM,0.973 nM,–,8.7 nM,"c1ncc(-c2c[nH]c3nccc(N4CCC5(CCNC5)CC4)c23)cn1 [Example E190, 8-(3-pyrimidin-5-yl-1H-pyrrolo[2,3-b]pyridin-4-yl)-2,8-diazaspiro[4.5]decane]"
9.28 nM,2.05 nM,–,7.7 nM,"c1ncc(-c2c[nH]c3nccc(N4CCC5(CCNCC5)C4)c23)cn1 [Example E191, 2-(3-pyrimidin-5-yl-1H-pyrrolo[2,3-b]pyridin-4-yl)-2,8-diazaspiro[4.5]decane]"
50500 nM,8.33 nM,–,428 nM,"c1ncc(-c2c[nH]c3nccc(N4CCC[C@]5(CCCCN5)C4)c23)cn1 [Example E192, (6R)-8-(3-pyrimidin-5-yl-1H-pyrrolo[2,3-b]pyridin-4-yl)-1,8-diazaspiro[5.5]undecane]"
558 nM,119 nM,–,762 nM,"CN1CCN(C(=O)[C@@H]2CCCN2c2ccnc3[nH]cc(C#N)c23)CC1 [Example E204, 4-[(2S)-2-(4-methylpiperazine-1-carbonyl)pyrrolidin-1-yl]-1H-pyrrolo[2,3-b]pyridine-3-carbonitrile]"
1210 nM,9.73 nM,–,396 nM,"CCN1CCCC[C@]12CCCN(c1ccnc3[nH]cc(-c4cncnc4)c13)C2 [Example E208, (6R)-1-ethyl-8-(3-pyrimidin-5-yl-1H-pyrrolo[2,3-b]pyridin-4-yl)-1,8-diazaspiro[5.5]undecane]"
47.8 nM,3.86 nM,–,34.7 nM,"c1ncc(-c2c[nH]c3nccc(OC[C@H]4CCNC4)c23)cn1 [Example E215, 3-pyrimidin-5-yl-4-[[(3S)-pyrrolidin-3-yl]methoxy]-1H-pyrrolo[2,3-b]pyridine]"
153 nM,5.84 nM,–,108 nM,"c1ncc(-c2c[nH]c3nccc(OC4CCNCC4)c23)cn1 [Example E223, 4-(4-piperidyloxy)-3-pyrimidin-5-yl-1H-pyrrolo[2,3-b]pyridine]"
190 nM,11.4 nM,–,140 nM,"CN1CC[C@H](COc2ccnc3[nH]cc(-c4cncnc4)c23)C1 [Example E225, 4-[[(3S)-1-methylpyrrolidin-3-yl]methoxy]-3-pyrimidin-5-yl-1H-pyrrolo[2,3-b]pyridine]"
14.2 nM,1.02 nM,–,18.4 nM,NCCC1CCN(c2ccnc3[nH]cc(-c4cncnc4)c23)CC1 [Example E238]
103 nM,7.85 nM,–,93.3 nM,c1ncc(-c2c[nH]c3nccc(NCC4CCCNC4)c23)cn1 (stereo not shown) [Example E239]
38.7 nM,8.31 nM,–,21.6 nM,N#Cc1c[nH]c2nccc(N3CCC3)c12 [Example E240]
543 nM,11.9 nM,–,224 nM,Cn1cc(-c2c[nH]c3nccc(N4CCC[C@](N)(N5CCC(N)CC5)C4)c23)cn1 [Example E241]

SMILES,Ki (ROCK1),Ki (MRCKβ),Ki (MRCKα),Ki (ROCK2)
"O[C@H]1CCCN(c2ccnc3[nH]cc(-c4cncnc4)c23)C1 [Example E101, (3S)-1-(3-pyrimidin-5-yl-1H-pyrrolo[2,3-b]pyridin-4-yl)piperidin-3-ol]",567 nM,22.5 nM,–,363 nM
"c1cc(-c2c[nH]c3nccc(N4CCCC5(CCCCN5)C4)c23)cnn1 (stereo not shown) [Example E172, 8-(3-pyridazin-4-yl-1H-pyrrolo[2,3-b]pyridin-4-yl)-1,8-diazaspiro[5.5]undecane]",33.6 nM,0.723 nM,–,14.6 nM
"c1ncc(-c2c[nH]c3nccc(N4CC5CNCC5C4)c23)cn1 (stereo not shown) [Example E199, 4-(2,3,3a,4,6,6a-hexahydro-1H-pyrrolo[3,4-c]pyrrol-5-yl)-3-pyrimidin-5-yl-1H-pyrrolo[2,3-b]pyridine]",222 nM,6.32 nM,–,199 nM
"c1ncc(-c2c[nH]c3nccc(O[C@@H]4CCCNC4)c23)cn1 [Example E217, 4-[[(3R)-3-piperidyl]oxy]-3-pyrimidin-5-yl-1H-pyrrolo[2,3-b]pyridine]",114 nM,4.01 nM,–,77.5 nM
"c1ncc(-c2c[nH]c3nccc(OCC4CCCNC4)c23)cn1 (stereo not shown) [Example E220, 4-(3-piperidylmethoxy)-3-pyrimidin-5-yl-1H-pyrrolo[2,3-b]pyridine]",34 nM,1.07 nM,–,40.7 nM
"CN1CCC[C@H](COc2ccnc3[nH]cc(-c4cncnc4)c23)C1 [Example E226, 3-pyrimidin-5-yl-4-[[(3S)-1-methyl-3-piperidyl]methoxy]-1H-pyrrolo[2,3-b]pyridine]",150 nM,5 nM,–,111 nM
c1ncc(-c2c[nH]c3nccc(NC4CCCNC4)c23)cn1 (stereo not shown) [Example E242],217 nM,19.3 nM,–,165 nM
